The results in this text go back to PMC10987949, “Inhibition of HIV-1 release by ADAM metalloproteinase inhibitors” (Frontiers in Microbiology, 2024).

The subject of data set [1] is CD62L shedding. The experiment in a line: Soluble CD62L ELISA, anti-CD3/PHA stimulated PBMC or CD4 T cells. The conditions noted are these: ELISA. The class given is cell-based, human. The procedure:
PBMC from de-identified healthy donors were obtained with informed consent from the Department of Transfusion Medicine, National Institutes of Health under Biological reagent Registry RD-14-IX-12 approved by NIH biological safety board. […] IL-2 was added at a final concentration of 20 U/mL. CD3 antibody okt3 was used at ~0.2 μg/mL final concentration. […] Supernatants were collected and assessed using either the CD62L or TNF-α Duo Set ELISA kit according to manufacturer’s instructions (R&D Systems, Inc.). The viability of cells treated with compounds was assessed by acridine orange / propidiom iodide (AO/PI Logosbio catalog F23001) staining using Luna-FL cell counter following the manufacture’s instruction.^2
Background: In an ELISA, binding on a coated surface is turned into a signal by an enzyme label.

For another data set, the system named is HIV-1BAL. The experiment in a line: HIV-1BAL infection of CD8-depleted PBMC, FACS (intracellular p24, CD4, CD62L). The class given is cell-based. The text has this: The use of healthy human peripheral blood mononuclear cells (PBMC) is approved by the Department of Transfusion Medicine at the Clinical Center of National Institutes of Health. The use of PBMC from HIV-1 infected individuals for the study was approved under protocol #02-I-0202 by the Institutional Review Board (IRB) of National Institutes of Health with written informed consent from all donors. Peripheral blood mononuclear cells (PBMCs) from anonymous healthy donors were isolated by Ficoll-Paque gradient, and cultured in RPMI 1640 supplemented with 10% FBS, 1%Penicillin/streptomycin, 1% HEPES buffer and 20 U/mL IL-2 (culture media); and stimulated with 0.2 μg/mL anti-CD3 antibody (okt3) for 2 days. CD8^+ T cells were depleted prior to infection using the Stemcell CD8 positive selection kit according to manufacturer’s instructions. CD8-depleted PBMCs were plated at 2×10^6 cells/ml in 48-well plates in 1 mL culture media with various inhibitors for 60 min prior to the addition of ~80 TCID50 HIV-1BAL or HIV-1LAI. Inhibitors were replenished during media change every 3 days. The infections were proceeded with or without inhibitors for 6 days or otherwise specified number of days and then analyzed by FACS staining using fluorescent labeled CD4-BV510, CD62L-APC and CD3-PEC7 antibodies (BD Biosciences). Cells were then washed and permeabilized with CytoFix/CytoPerm (BD Biosciences) solution before intracellular staining for HIV p24 antigen using FITC conjugated anti-p24 antibody clone KC57 (Beckman Coulter, catalog 6604665). All assays were performed with cell viabilities >80%. Replication competent HIV-1 viruses were obtained from the NIH AIDS Reagent Program^4, and expanded by infecting activated CD8-depleted PBMCs, and TCID50 was determined by p24 ELISA.

The target of data set [2] is T1, recombinant ADAM10 (Homo sapiens, UniProt O14672).
T1 construct: purchased R&D systems, Inc
T1 sequence (O14672 214-748): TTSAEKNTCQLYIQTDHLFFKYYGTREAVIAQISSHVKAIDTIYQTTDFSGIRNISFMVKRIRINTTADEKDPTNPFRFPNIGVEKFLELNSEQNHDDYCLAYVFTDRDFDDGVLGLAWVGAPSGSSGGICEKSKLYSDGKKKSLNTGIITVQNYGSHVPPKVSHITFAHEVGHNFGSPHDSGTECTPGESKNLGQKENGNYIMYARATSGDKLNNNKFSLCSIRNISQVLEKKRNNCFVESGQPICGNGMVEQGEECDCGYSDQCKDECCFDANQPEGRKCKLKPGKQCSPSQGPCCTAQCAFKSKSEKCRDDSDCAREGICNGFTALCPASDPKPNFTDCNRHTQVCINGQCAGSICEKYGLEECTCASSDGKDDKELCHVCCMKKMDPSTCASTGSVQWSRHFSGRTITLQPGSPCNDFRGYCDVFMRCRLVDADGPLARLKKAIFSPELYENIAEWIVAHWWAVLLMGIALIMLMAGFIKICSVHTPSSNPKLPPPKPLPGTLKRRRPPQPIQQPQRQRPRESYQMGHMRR
Nature of the data set: Cleavage of fluorogenic CD62L peptide by recombinant ADAM10. The class given is biochemical. The note with it: 2 μM compound. From the text: A fluorescence based enzymatic assay was used to measure the cleavage of fluorogenic TNF-α and L-selectin (CD62L) peptides by either recombinant ADAMs or PBMC from healthy donors. The fluorogenic substrate, synthesized by Biomatik^3, was a Dabcyl (4-(4-dimethylaminophenylazo)benzoyl)- and Edans (5-[(2-aminoethyl)amino]naphthalene-1-sulfonic acid)- conjugated 12 amino acid peptide: Dabcyl-[…]-Edans that corresponds to the extracellular membrane proximal region of CD62L. The fluorescence of the Edans group is quenched by the Dabcyl group in the intact substrate and the cleavage of the CD62L substrate peptide results in a fluorescence emission at 490 nm. The cleavage of fluorogenic TNF-α peptide (ES003, R &D systems, Inc) was detected at emission of 405 nm. The cleavage was measured in a kinetic assay every 3 min for 4 h in black 96-well plates using a Synergy_h1 fluorescent plate reader (BioTek) with 340 nm excitation and 490 nm emission wavelengths. For cleavage using recombinant ADAMs, each enzymatic reaction contained 50–200 ng of recombinant ADAM17 or 10 (R&D systems, Inc) mixed with 5–10 μM fluorogenic TNFα peptide ES003 (R&D systems, Inc) or CD62L peptide with or without indicated inhibitors in 100 μL assay buffer of 25 mM Tris at pH 9.0, 2.5 μM ZnCl2, and 0.005% Brij-35 (w/v). For cell-based cleavage of the fluorescent CD62L-peptide substrate, 300,000 PBMC at 2×10^6/ml density were mixed with 10 μM fluorescent CD62L-peptide and various inhibitors in a black 96-well plate in 150 μL culture media (RPMI 1640, 10% FBS, 1% penicillin streptomycin). PBMC were stimulated with anti-CD3 antibody for 2–4 days as described above.
Supplemental Figure 3. Inhibition of ADAM10 enzymatic activity by 14mb. A) chemical structure of 3-Cl-phenylpyrrolidine tartrate diamide analogs 14m and 15. B)Inhibition of recombinant ADAM10 cleavage of a fluorogenic CD62L peptide substrate in the presence of titrating concentrations of 14mb. The concentration-dependent enzymatic activities are fitted with non-linear regression of normalized inhibition response model. C). Inhibition of ADAM10 enzymatic cleavage of fluorogenic CD62L peptide by various […]

In the next data set the target is T2, recombinant ADAM17 (Homo sapiens, UniProt P78536).
T2 construct: purchased R&D systems, Inc
T2 sequence (P78536 215-824): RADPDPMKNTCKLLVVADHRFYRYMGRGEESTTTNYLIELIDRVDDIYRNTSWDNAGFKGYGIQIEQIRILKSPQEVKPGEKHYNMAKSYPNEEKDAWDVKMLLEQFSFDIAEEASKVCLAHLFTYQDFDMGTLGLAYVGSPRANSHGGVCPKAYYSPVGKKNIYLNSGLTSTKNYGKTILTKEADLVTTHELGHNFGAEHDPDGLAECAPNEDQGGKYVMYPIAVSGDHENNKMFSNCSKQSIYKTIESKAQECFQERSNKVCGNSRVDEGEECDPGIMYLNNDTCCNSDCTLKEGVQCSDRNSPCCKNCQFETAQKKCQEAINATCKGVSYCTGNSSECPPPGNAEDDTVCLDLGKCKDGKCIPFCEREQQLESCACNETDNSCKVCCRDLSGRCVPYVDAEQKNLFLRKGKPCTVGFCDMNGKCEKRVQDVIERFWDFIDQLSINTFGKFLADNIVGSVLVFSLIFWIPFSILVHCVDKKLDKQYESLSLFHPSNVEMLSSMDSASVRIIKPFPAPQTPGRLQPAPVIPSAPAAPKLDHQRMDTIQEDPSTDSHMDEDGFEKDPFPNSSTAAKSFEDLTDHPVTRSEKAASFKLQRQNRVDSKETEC
The experiment in a line: Kinetic cleavage of fluorogenic TNF-α peptide ES003 by recombinant ADAM17. The class given is biochemical. The conditions noted are these: 2 μM compound. From the text:
(§1) A fluorescence based enzymatic assay was used to measure the cleavage of fluorogenic TNF-α and L-selectin (CD62L) peptides by either recombinant ADAMs or PBMC from healthy donors. The fluorogenic substrate, synthesized by Biomatik^3, was a Dabcyl (4-(4-dimethylaminophenylazo)benzoyl)- and Edans (5-[(2-aminoethyl)amino]naphthalene-1-sulfonic acid)- conjugated 12 amino acid peptide: Dabcyl-[…]-Edans that corresponds to the extracellular membrane proximal region of CD62L. […] The cleavage was measured in a kinetic assay every 3 min for 4 h in black 96-well plates using a Synergy_h1 fluorescent plate reader (BioTek) with 340 nm excitation and 490 nm emission wavelengths. […] PBMC were stimulated with anti-CD3 antibody for 2–4 days as described above.
(§2) 96-well plate with data recorded every 3 minutes for 4 hours using a Synergy_h1 fluorescent plate reader. Each enzymatic reaction contained 50 -200 ng
(§3) Figure 2B and 2C bar diagrams are generated using the
(§4) data points at 4 hour time point of the enzymatic cleavages.

For data set [3], the target named is T1, recombinant ADAM10. The experiment in a line: Kinetic cleavage of fluorogenic TNF-α peptide ES003 by recombinant ADAM10. The note with it: 2 μM compound. The class given is biochemical.
Text: as §1, §2, §3, §4

Data set [4] has as its target T3, recombinant HIV-1 protease (Human immunodeficiency virus type 1 group M subtype B, UniProt P04585).
T3 construct: recombinant HIV-1 protease; purchased Sigma-Aldrich SRP2151
Nature of the data set: HIV-1 protease fluorogenic substrate cleavage. The class given is biochemical. The note with it: 100nM saquinavir or nelfinavir; MMP inhibitors up to 10uM. The procedure: HIV-1 protease enzymatic activity was assayed in black 96-well plates at room temperature using a Synergy_h1 fluorescent plate reader with 340 nm excitation and 490 nm emission wavelengths (BioTek). Each enzymatic reaction consisted of a mixture of 100 ng of recombinant HIV-1 protease (Sigma-Aldrich catalog SRP2151), 5 μM concentration of a fluorogenic substrate Arg-Glu(EDANS)-[…]DABCYL)-Arg (Sigma-aldrich catalog H6660), and various concentrations of inhibitor compounds in 100 μL of assay buffer (0.15 M sodium chloride, 1.0 mM EDTA, 1.0 mM DTT, 0.1 M sodium acetate, pH 5.0). The fluorescence of the cleavage reaction was continuously read at every 30 s for a total of 40 min.

For the next data set, the system named is HIV-1. The experiment in a line: Ex vivo HIV-1 release from CD4 T cells of HIV-1 infected individuals. The class given is cell-based. The note with it: 50 μM; CD4 T cells from six HIV-1 infected individuals; day 2 and 4. The procedure:
PBMCs were collected from the study subjects in accordance with a clinical protocol approved by the Institutional Review Board of the National Institute of Allergy and Infectious Diseases, National Institutes of Health under protocol #02-I-0202. CD4^+ T cells were isolated from the PBMCs using a human CD4 T cell separation system (StemCell Technologies, Catalog 19052) and were cultured with medium alone or with plate-bound anti-CD3 and soluble anti-CD28 antibody in the absence or presence of 50 μM of indicated compounds for 48 h. The copy number of cell-free viron-associated HIV RNA in the culture supernatants was quantified using the Cobas Ampliprep/Cobas Taqman HIV-1 Test, Version 2.0 (Roche Diagnostics) with droplet digital PCR (ddPCR, BIO-RAD) on day 2 and 4 of stimulation.

The subject of data set [5] is CD62L shedding. The experiment in a line: Soluble CD62L ELISA, unstimulated PBMC. The class given is cell-based, human. The note with it: Homo sapiens, PBMC; 10 μM compound; non-stimulated cells; ELISA; read-out: Shedding inhibition Non-stim. The procedure: PBMC from de-identified healthy donors were obtained with informed consent from the Department of Transfusion Medicine, National Institutes of Health under Biological reagent Registry RD-14-IX-12 approved by NIH biological safety board. CD8-depleted PBMCs, either stimulated or non-stimulated with 10 μg/mL phytohaemagglutinin (PHA) or anti-CD3 antibody (with or without conjugated beads), were plated at 2×10^6 cells/ml in 48 well plates in RPMI 1640 + 10%FBS (R10) to a final volume of 1 mL in each well. IL-2 was added at a final concentration of 20 U/mL. CD3 antibody okt3 was used at ~0.2 μg/mL final concentration. […] Supernatants were collected and assessed using either the CD62L or TNF-α Duo Set ELISA kit according to manufacturer's instructions (R&D Systems, Inc.). The viability of cells treated with compounds was assessed by acridine orange / propidiom iodide (AO/PI Logosbio catalog F23001) staining using Luna-FL cell counter following the manufacture's instruction.^2 […] Supplemental Figure 1. CD62L shedding from unstimulated PBMC. A) Soluble CD62L in the supernatant of unstimulated PBMC was measured By ELISA (R&D systems, Inc) after 24 hour treatment in the presence of 10 μM of […]), aminopeptidase (AP) protease inhibitors, respectively, or their untreated controls. Statistics were calculated using unpaired parametric student t-test between individual treatment and DMSO control. […] B) Viability of PBMC treated with 10-500 μM of MMP inhibitors for 24hours. […] Untreated DMSO AEBSF 3,4-Dichloroisocouman Granzyme B Inhibitor II Granzyme B Inhibitor IV Aprotinin […] 3 4 CD62L shedding from unstimulated PBMC Soluble CD62L (ng/ml) Inhibitor Class […] GI254023X 10 GI254023X 100 […] GI254023X 1000 GW280264X 10 GW280264X 100 […] GW280264X 1000 Marimastat 10 Marimastat 100 Marimastat 250 […]

One may read the inhibition as the drop in the measured response relative to a control, in per cent.

On to `O=P([O-])([O-])C(Cl)(Cl)P(=O)(O)O.[Na+].[Na+]` [DMDP, Dichloromethylenediphosphonic acid disodium salt], for which the “Shedding inhibition Stimulated” value with CD62L shedding [1] (10 μM compound, stimulated cells) is “− (0% inhibition)”. Further, the “accumulation of infected CD4−/CD62L− T cells (loss of CD62L)” value in the data set on HIV-1BAL (HIV-1BAL infected cells) is “failed to prevent the loss of CD62L”. Besides, the “effect on HIV-1BAL infection (intracellular p24)” value with HIV-1BAL (day 7 post infection, compounds at 100 μM, GI254023X at 250 μM) is reported as “failed to inhibit HIV-1BAL infections”. For the same molecule, the “inhibition of ADAM10 cleavage of CD62L substrate peptide” value on recombinant ADAM10 [2] was “not”. The “inhibition of ADAM17 cleavage of ES003” value at recombinant ADAM17 is “inhibited neither ADAM10 nor 17 enzymatic activities”. Also, the “inhibition of ADAM10 cleavage of ES003” value at recombinant ADAM10 [3] is “inhibited neither ADAM10 nor 17 enzymatic activities”. Also, in data set [4], the “effect on HIV protease cleavage of fluorogenic substrate” value is “none of the MMP inhibitors, including BB-94, prinomastat, GM6001 and DMDP, inhibited the activity of HIV protease”.
As for `CNC(=O)[C@H](Cc1c[nH]c2ccccc12)NC(=O)[C@@H](CC(=O)NO)CC(C)C` [GM6001], the inhibition at 10 µM with CD62L shedding [1] (Homo sapiens, 10 μM compound, stimulated cells) fell in the range of 20 to 50%; in the data set with CD62L shedding [5], 20 to 50%. Moreover, in the data set on CD62L shedding [1] (stimulated PBMC or CD4 T cells), the “effect on CD62L shedding / soluble CD62L” value was “suppressed CD62L shedding”. Besides, in the data set with HIV-1, the “effect on viral release (virion-associated HIV RNA)” value is reported as “inhibited viral release in a portion of the samples”. For the same molecule, the “effect on HIV protease cleavage of fluorogenic substrate” value in data set [4] was “none of the MMP inhibitors, including BB-94, prinomastat, GM6001 and DMDP, inhibited the activity of HIV protease”.
